Laboratory results reported in PubChem BioAssay (NCI).
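Growth conditions: 96-well plates. Treatment: test compound, 48 hours, 5 concentrations. Analysis: linear interpolation between bracketing concentrations; unreached endpoints set to highest concentration. TGI is the concentration that stops growth completely.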

Key:
Test in all cases: inhibition of tumour cell growth, NCI panel, 48 h
786-0 renal = test system: 786-0 renal
A498 renal = test system: A498 renal
A549 NSCLC = test system: A549 NSCLC
ACHN renal = test system: ACHN renal
CCRF-CEM leukemia = test system: CCRF-CEM leukemia
COLO 205 colon = test system: COLO 205 colon
DU-145 prostate = test system: DU-145 prostate
EKVX NSCLC = test system: EKVX NSCLC
HCT-116 colon = test system: HCT-116 colon
HCT-15 colon = test system: HCT-15 colon
HOP-62 NSCLC = test system: HOP-62 NSCLC
HOP-92 NSCLC = test system: HOP-92 NSCLC
HS 578T breast = test system: HS 578T breast
HT29 colon = test system: HT29 colon
IGROV1 ovarian = test system: IGROV1 ovarian
K-562 leukemia = test system: K-562 leukemia
KM12 colon = test system: KM12 colon
LOX IMVI melanoma = test system: LOX IMVI melanoma
M14 melanoma = test system: M14 melanoma
MALME-3M melanoma = test system: MALME-3M melanoma
MCF7 breast = test system: MCF7 breast
MDA-MB-231 breast = test system: MDA-MB-231 breast
MDA-MB-435 = test system: MDA-MB-435
MDA-N = test system: MDA-N
MOLT-4 leukemia = test system: MOLT-4 leukemia
NCI-H226 lung = test system: NCI-H226 lung
NCI-H23 lung = test system: NCI-H23 lung
NCI-H522 lung = test system: NCI-H522 lung
NCI/ADR-RES ovarian = test system: NCI/ADR-RES ovarian
OVCAR-3 ovarian = test system: OVCAR-3 ovarian
OVCAR-4 ovarian = test system: OVCAR-4 ovarian
OVCAR-5 ovarian = test system: OVCAR-5 ovarian
OVCAR-8 ovarian = test system: OVCAR-8 ovarian
PC-3 prostate = test system: PC-3 prostate
RPMI-8226 leukemia = test system: RPMI-8226 leukemia
SF-268 CNS = test system: SF-268 CNS
SF-295 CNS = test system: SF-295 CNS
SK-MEL-2 melanoma = test system: SK-MEL-2 melanoma
SK-MEL-28 melanoma = test system: SK-MEL-28 melanoma
SK-MEL-5 melanoma = test system: SK-MEL-5 melanoma
SK-OV-3 ovarian = test system: SK-OV-3 ovarian
SN12C renal = test system: SN12C renal
SNB-19 CNS = test system: SNB-19 CNS
SNB-75 CNS = test system: SNB-75 CNS
SR leukemia = test system: SR leukemia
SW-620 colon = test system: SW-620 colon
TK-10 renal = test system: TK-10 renal
U251 CNS = test system: U251 CNS
UACC-62 melanoma = test system: UACC-62 melanoma
UO-31 renal = test system: UO-31 renal
CAKI-1 renal = test system: CAKI-1 renal
HCC-2998 colon = test system: HCC-2998 colon
HL-60(TB) leukemia = test system: HL-60(TB) leukemia
NCI-H460 lung = test system: NCI-H460 lung
RXF 393 renal = test system: RXF 393 renal
SF-539 CNS = test system: SF-539 CNS
UACC-257 melanoma = test system: UACC-257 melanoma

Measured: TGI

C/C1=C\[C@H](C)C[C@H](C)OC(=O)C[C@H](c2ccc(O)cc2)NC(=O)[C@H](Cc2ccc(O)c(I)c2)N(C)C(=O)[C@H](C)NC(=O)[C@@H](C)C1
0.0186 µM: OVCAR-4 ovarian
18.6 µM: HCT-116 colon
18.8 µM: NCI/ADR-RES ovarian
> 25 µM: 786-0 renal | A549 NSCLC | ACHN renal | CCRF-CEM leukemia | COLO 205 colon | DU-145 prostate | HCT-15 colon | HOP-62 NSCLC | HT29 colon | IGROV1 ovarian | K-562 leukemia | KM12 colon | LOX IMVI melanoma | M14 melanoma | MCF7 breast | MOLT-4 leukemia | NCI-H226 lung | NCI-H23 lung | NCI-H522 lung | OVCAR-3 ovarian | OVCAR-5 ovarian | PC-3 prostate | RPMI-8226 leukemia | SF-295 CNS | SK-MEL-28 melanoma | SNB-19 CNS | SR leukemia | SW-620 colon | TK-10 renal
22.9 µM: SN12C renal
6.84 µM: EKVX NSCLC
5.18 µM: MDA-MB-435
0.185 µM: UO-31 renal
0.0948 µM: A498 renal
13.8 µM: MDA-N
0.433 µM: MDA-MB-231 breast
0.118 µM: HOP-92 NSCLC
8.77 µM: UACC-62 melanoma
6.9 µM: U251 CNS
16.9 µM: SK-OV-3 ovarian
3.45 µM: OVCAR-8 ovarian
10.3 µM: SNB-75 CNS
0.153 µM: SF-268 CNS
3.06 µM: MALME-3M melanoma
0.245 µM: HS 578T breast
6.78 µM: SK-MEL-2 melanoma
11.1 µM: SK-MEL-5 melanoma

O=c1c2cc([N+](=O)[O-])ccc2[nH]n1Cc1ccccn1
> 100 µM: 786-0 renal | A498 renal | A549 NSCLC | ACHN renal | CAKI-1 renal | CCRF-CEM leukemia | COLO 205 colon | DU-145 prostate | EKVX NSCLC | HCC-2998 colon | HCT-116 colon | HCT-15 colon | HL-60(TB) leukemia | HOP-62 NSCLC | HOP-92 NSCLC | HS 578T breast | HT29 colon | IGROV1 ovarian | K-562 leukemia | KM12 colon | LOX IMVI melanoma | M14 melanoma | MALME-3M melanoma | MDA-MB-231 breast | MDA-MB-435 | MDA-N | MOLT-4 leukemia | NCI-H226 lung | NCI-H23 lung | NCI-H460 lung | NCI-H522 lung | NCI/ADR-RES ovarian | OVCAR-3 ovarian | OVCAR-4 ovarian | OVCAR-5 ovarian | OVCAR-8 ovarian | PC-3 prostate | RPMI-8226 leukemia | RXF 393 renal | SF-268 CNS | SF-295 CNS | SF-539 CNS | SK-MEL-28 melanoma | SK-MEL-5 melanoma | SN12C renal | SNB-19 CNS | SNB-75 CNS | SR leukemia | SW-620 colon | TK-10 renal | U251 CNS | UACC-257 melanoma | UACC-62 melanoma | UO-31 renal
